Like-named read-outs stand apart in the source and are kept apart here.
Legend:
[1] = Thermodynamic stability and interconversion of polymorphs; format: physicochemical
[2] = Hygroscopicity of the crystalline form; format: physicochemical; settings: solid crystalline form

Row | Compound | polymorphic conversion under heating ([1]; conditions of heating) | thermodynamic stability relative to other polymorphs [1] | polymorphic conversion in aqueous solvent systems ([1]; aqueous solvent systems) | thermodynamic stability relative to other polymorphs ([1]; listed as form A) | hygroscopicity [2]
1 | Nc1cccc2c1CN(C1CCC(=O)NC1=O)C2=O (centres unmarked) [form B, 3-(4-amino-1-oxo-1,3-dihydro-isoindol-2-yl)-piperidine-2,6-dione] | convert to form A | – | – | – | –
2 | Nc1cccc2c1CN(C1CCC(=O)NC1=O)C2=O (centres unmarked) [lenalidomide crystalline form A, 3-(4-amino-1-oxo-1,3-dihydro-isoindol-2-yl)-piperidine-2,6-dione] | – | most thermodynamically stable anhydrous polymorph | convert to form B | most thermodynamically stable form | non-hygroscopic

Source: patent US8946265B2, “Process for the preparation of lenalidomide” (Generics [UK] Limited, priority 2009, dated 2015)
